Columns and labels:
[1] = standard conditions (room temperature, standard air pressure); cited from earlier work
[2] = standard conditions, worked out from 0.8 mmol and 2 g per mole

## [HH] [hydrogen]
[1]
  maximum concentration at which hydrogen dissolves in water: about 0.8 mmol
[2]
  hydrogen per liter of water at maximum dissolution: about 1.6 mg per liter

Reference: patent US9539282B2, “Therapeutic use of hydrogen molecules” (MAX-PLANCK-GESELLSCHAFT ZUR FORDERUNG DER WISSENSCHAFTEN …, priority 2012, dated 2017)
